The text below walks through data of BindingDB's records for patent US20250236619 (Chia Tai Tianqing Pharmaceutical Group Co., 2025).

Molecules are shown by their SMILES.

The target of this assay is Mitogen-activated protein kinase kinase kinase kinase 1 (Homo sapiens, UniProt Q92918). In words: Assay for In Vitro Inhibitory Activity Against HPK1 Kinase. On the procedure: A kinase buffer (Enzymatic buffer 5×) was diluted to 1×, and 10 mM MgCl2, 1 mM DTT, and 0.005% Tween 20 were added. A 100 ng/μL HPK1 (Life technology) stock solution was diluted with the kinase buffer to obtain a 1.67×, 1.67 ng/μL working solution (final concentration: 1 ng/μL), and the working solution was seeded in a 384-well plate at 6 μL/well. Different compounds dissolved in DMSO were added to the wells using a nanoliter pipettor to obtain final concentrations of the compounds of 1000 nM to 0.244 nM (4-fold serial dilution, 7 concentrations in total), and blank control wells (without enzyme) and negative control wells (with enzyme, plus vehicle DMSO) were set; the wells were set in duplicate. After the enzyme and the compounds were incubated at room temperature for 1 h, a 5×, 5 mM ATP dilution (final concentration: 1 mM) in the kinase buffer was mixed with a 5×, […] (Cisbio, STK Substrate 1-biotin; final concentration: 500 nM) in equal volume, and the mixture was added to the plate at 4 µL/well. The plate was sealed with a film and then incubated at room temperature for 2 h. An assay antibody solution was prepared by mixing the antibody STK Antibody-cryptate (Cisbio, 5 μL/test) and a 4×, 500 nM Streptavidin-XL665 (Cisbio; final concentration: 125 nM) in equal volume and added to the plate at 10 μL/well. The plate was incubated at room temperature for 1 h. The signal values ([…]) were measured using a PE Envision multimode microplate reader, and IC50 was calculated by four-parameter fitting.
Sequence of Mitogen-activated protein kinase kinase kinase kinase 1 (Q92918 whole entry): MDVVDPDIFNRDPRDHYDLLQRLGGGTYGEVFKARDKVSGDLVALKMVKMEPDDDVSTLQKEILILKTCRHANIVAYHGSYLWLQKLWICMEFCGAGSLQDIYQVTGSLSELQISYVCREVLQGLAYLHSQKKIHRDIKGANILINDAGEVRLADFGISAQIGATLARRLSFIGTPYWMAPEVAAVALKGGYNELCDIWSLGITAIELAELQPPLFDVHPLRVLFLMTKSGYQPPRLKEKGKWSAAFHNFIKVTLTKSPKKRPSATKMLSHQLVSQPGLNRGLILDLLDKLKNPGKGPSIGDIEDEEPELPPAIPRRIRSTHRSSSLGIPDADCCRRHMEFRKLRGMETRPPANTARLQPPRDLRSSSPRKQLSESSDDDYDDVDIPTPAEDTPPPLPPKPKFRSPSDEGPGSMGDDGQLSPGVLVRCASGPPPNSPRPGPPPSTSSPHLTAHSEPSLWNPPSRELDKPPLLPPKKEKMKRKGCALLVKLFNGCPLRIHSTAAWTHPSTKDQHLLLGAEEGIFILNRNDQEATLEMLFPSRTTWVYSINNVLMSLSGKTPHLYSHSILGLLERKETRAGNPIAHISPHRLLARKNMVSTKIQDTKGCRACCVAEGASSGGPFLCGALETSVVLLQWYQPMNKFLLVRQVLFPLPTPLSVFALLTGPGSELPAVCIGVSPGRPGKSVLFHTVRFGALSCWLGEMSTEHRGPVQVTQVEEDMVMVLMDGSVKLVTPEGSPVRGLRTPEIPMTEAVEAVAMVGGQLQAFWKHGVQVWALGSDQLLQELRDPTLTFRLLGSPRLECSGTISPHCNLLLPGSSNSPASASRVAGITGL

In turn, `CN(C)Cc1nc(Nc2ccc(-c3cnn4ccc5occc5c34)c3c2C(=O)NC3)ccc1C1CCN(C)CC1` [US20250236619, Compound I-83] came in with an IC50 of 2 nM. This counts as single-digit nanomolar.

For `CN(C)Cc1nc(Nc2ccc(-c3cnc4ccc5occc5n34)c3c2C(=O)NC3)ccc1C1CCN(C)C(=O)C1` (stereo not drawn) [US20250236619, Compound I-66], the midpoint of inhibition, the IC50, lay at 2.5 nM.

Compound `CN(C)Cc1nc(Nc2cnc(-c3cnn4ccc5occc5c34)c3c2C(=O)NC3)ccc1N1CCOCC1` [US20250236619, Compound I-47] showed an IC50 of 4.7 nM.

Compound `CN(C)Cc1nc(Nc2ccc(-c3cnc4cnc5occc5n34)c3c2C(=O)NC3)ccc1C1CCOCC1` [US20250236619, Compound I-48] came in with an IC50 of 2.6 nM.

In turn, `CC(=O)N(C)c1ccc(Nc2ccc(-c3cnn4ccc5occc5c34)c3c2C(=O)NC3)nc1CN(C)C` [US20250236619, Compound I-70] gave an IC50 of 7.5 nM.

As for `CN(C)Cc1nc(Nc2ccc(-c3cnc4cnc5occc5n34)c3c2C(=O)NC3)ccc1C1CCOC1` (stereo not drawn) [US20250236619, Compound I-54], the 50% inhibitory concentration (IC50) is 6.6 nM.

In turn, `CN(C)Cc1nc(Nc2ccc(-c3cnc4cnc5occc5n34)c3c2C(=O)NC3)ccc1C1CC(=O)N(C)C1` (stereo not drawn) [US20250236619, Compound I-58] returned an IC50 of 5.6 nM.

The compound `CN(C)Cc1nc(Nc2ccc(-c3cnc4ccc5occc5n34)c3c2C(=O)NC3)ccc1N1CCCC1=O` [US20250236619, Compound I-52] yielded a 50% inhibitory concentration (IC50) of 36 nM.

Turning to `CN(C)Cc1nc(Nc2ccc(-c3ccnc4c3c3c(n4C)CCC3)c3c2C(=O)NC3)ccc1C1CCN(C)C(=O)C1` (stereo not drawn) [US20250236619, Compound I-84], the IC50 was determined as 2.6 nM.

Consider `CN(C)Cc1nc(Nc2ccc(-c3cnn4ccc5occc5c34)c3c2C(=O)NC3)ccc1-c1ccn(C)c(=O)c1` [US20250236619, Compound I-81], for which the IC50 is 2 nM.

`CN(C)Cc1nc(Nc2cnc(-c3cnn4c3CC3(CC3)C4)c3c2C(=O)NC3)ccc1C1CCOCC1` [US20250236619, Compound I-55]: the IC50 is 15 nM.

In turn, `[2H]C([2H])(c1nc(Nc2ccc(-c3cnn4c3CC3(CC3)C4)c3c2C(=O)NC3)ccc1C1CCOCC1)N(C)C` [US20250236619, Compound I-53] displayed an IC50 of 2.7 nM. This IC50 lies about 5.6-fold lower than the previous one.

`[2H]C([2H])(c1nc(Nc2cnc(-c3ccnc4c3c3c(n4C)CCC3)c3c2C(=O)NC3)ccc1C1CCOCC1)N(C)C` [US20250236619, Compound I-17]: the IC50 was determined as 1.7 nM. This IC50 is about 1.6-fold lower than that of the compound before.

Consider `CN(C)Cc1nc(Nc2ccc(-c3ncnc4[nH]c5c(c34)CCC5)c3c2C(=O)NC3)ccc1C1CCOCC1` [US20250236619, Compound I-24], for which the IC50 is 11 nM.

Turning to `O=C1NCc2c(-c3cnn4ccc5occc5c34)ccc(Nc3ccc(N4CCOCC4)c([C@H]4CCCN4)n3)c21` [US20250236619, Compound I-57], the IC50 came to 17 nM.

As to `CN(C)Cc1nc(Nc2ccc(-c3cnc4cnc5occc5n34)c3c2C(=O)NC3)ccc1C1CCN(C)CC1` [US20250236619, Compound I-80], 2.8 nM corresponded to half-maximal inhibition (IC50).

The compound `CN(C)Cc1nc(Nc2ccc(-c3cnn4ccc5occc5c34)c3c2C(=O)NC3)ccc1C1CCCO1` (stereo not drawn) [US20250236619, Compound I-64] registered a 50% inhibitory concentration (IC50) of 2.9 nM.

Compound `CN(C)Cc1nc(Nc2ccc(-c3cnc4cnc5occc5n34)c3c2C(=O)NC3)ccc1C1CCCO1` (stereo not drawn) [US20250236619, Compound I-65] registered an IC50 of 21 nM.

For `CN(C)Cc1nc(Nc2ccc(-c3cnc4ccc5c(n34)CCO5)c3c2C(=O)NC3)ccc1C1CCOCC1` [US20250236619, Compound I-35], the IC50 worked out at 6.4 nM.

In the case of `CNCc1nc(Nc2ccc(-c3cnn4ccc5occc5c34)c3c2C(=O)NC3)sc1C1CCOCC1` [US20250236619, Compound I-85], half-maximal inhibition (IC50) was put at 3.8 nM.

In turn, `CN(C)Cc1nc(Nc2ccc(-c3cnc4ccc5occc5n34)c3c2C(=O)NC3)ccc1N1CCN(C)C1=O` [US20250236619, Compound I-50] gave an IC50 of 29 nM. This IC50 is about 7.6-fold higher than that of the compound before.

`CN(C)Cc1nc(Nc2cnc(-c3nnc4ccc5c(n34)CCC5)c3c2C(=O)NC3)ccc1C1CCOCC1` [US20250236619, Compound I-25] showed an IC50 of 32 nM.

On to `CN(C)Cc1nc(Nc2ccc(-c3cnn4c3CC3(CC3)C4)c3c2C(=O)NC3)ccc1C1CCOCC1` [US20250236619, Compound I-34], for which inhibition was half-maximal at 2.1 nM (IC50).

In the case of `CN(C)Cc1nc(Nc2cnc(-c3cnn4ccc5occc5c34)c3c2C(=O)NC3)ccc1C1CCOCC1` [US20250236619, Compound I-46], the midpoint of inhibition, the IC50, lay at 2.1 nM.

As to `CN(C)Cc1nc(Nc2ccc(-c3cnn4ccc5occc5c34)c3c2C(=O)NC3)ccc1N1CCN(C)C(=O)C1` [US20250236619, Compound I-76], the midpoint of inhibition, the IC50, lay at 1.8 nM.

`CN(C)Cc1nc(Nc2ccc(-c3cnn4ccc5occc5c34)c3c2C(=O)NC3)ccc1C1CCOCC1` [US20250236619, Compound I-38] registered a half-inhibitory concentration (IC50) of 1.7 nM.

`CN(C)Cc1nc(Nc2ccc(-c3cnn4c3CC3(CC3)C4)c3c2C(=O)NC3)ccc1C1CCN(C)C(=O)C1` (stereo not drawn) [US20250236619, Compound I-67] came in with a half-inhibitory concentration (IC50) of 4.6 nM.

`CN(C)Cc1nc(Nc2ccc(-c3cnn4ccc5occc5c34)c3c2C(=O)NC3)ccc1C1CC(=O)N(C)C1` (stereo not drawn) [US20250236619, Compound I-59] gave an IC50 of 2.3 nM.
